The source made the active and inactive calls. No rule for the calls is given here.
assay: E-selectin induction blockers, endothelial cells – imaging, retest plus dose response, cell count, confirmation (AID 1288); settings: human endothelial cells, TNFa-induced E-selectin, imaging; at 2 µM; stronger effect = higher value;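 also: 0% = stimulated vehicle wells and 100% = unstimulated vehicle wells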

SMILES | inhibition
CCOc1cc(N2CCOCC2)c(OCC)cc1NS(=O)(=O)c1ccc(Cl)s1 | 6.76% (inactive)
CCOC(=O)C1C(c2cc(OC)c(O)c(OC)c2)NC(=S)NC1(O)C(F)(F)F (stereo not given) | 7.39% (inactive)
CC(=O)c1c(C)[nH]c(C(=O)Nc2ccccc2N2CCOCC2)c1C | 4.19% (inactive)
Cc1nc(=O)c(-c2ccccc2)c(C)n1-c1ccc(S(N)(=O)=O)cc1 | 42.4% (inactive)
CCOc1ccc(C)cc1-n1nc2ccccc2n1 | 34.6% (inactive)
COc1ccc(CNC(=O)c2ccc(NC(=O)CC3SC(N4CCCCC4)=NC3=O)cc2)cc1 (stereo not given) | 4.81% (inactive)
COC(=O)Cn1cnc2c1c(=O)n(C)c(=O)n2C | 6.02% (inactive)
Cc1cc(OCC(=O)Nc2ccncc2)c(C)cc1Br | 3.41% (inactive)
COc1ccc(Br)cc1CN(C)CC(=O)Nc1c(Cl)cccc1Cl | 0.05% (inactive)
CO/C([O-])=N/c1c[n+](-c2ccc(Cl)cc2)no1 | 26.1% (inactive)
CN(C)CCNC(=O)/C(=C/c1ccc(-c2ccc(Cl)cc2)o1)NC(=O)c1ccccc1 | 0.09% (inactive)
O=C(CN(C(=O)CCC(=O)Nc1ccccn1)c1ccc2c(c1)OCO2)NCc1ccco1 | 36.3% (inactive)
COc1ccc(-c2n[nH]c(C(F)(F)F)c2-c2cc3ccccc3o2)c(O)c1 | 3.2% (inactive)
CCN(CC)c1ccc(NC(=O)COC(=O)/C=C/c2nc3ccccc3s2)cc1 | 15.5% (inactive)
O=C(CCc1ccccc1)Nc1ncc2c(n1)CCCC2=O | 14.5% (inactive)
O=S(=O)(Nc1ccccn1)c1ccc(Cl)c2ccccc12 | 9.42% (inactive)
COc1ccc2[nH]c(C)c(CCN3C(=O)C4C5C=CC(C5)C4C3=O)c2c1 (stereo not given) | 9.54% (inactive)
Cc1ccc(CNC(=O)C2CCN(S(=O)(=O)c3c(C)noc3/C=C/c3ccco3)CC2)cc1 | 4.12% (inactive)
COC(=O)c1nnn(-c2ccc(Cl)c(Cl)c2)c1C(=O)OC | 11.3% (inactive)
Cc1ccc(/C=C/C(=O)O)cc1S(=O)(=O)NCCO | 1.34% (inactive)
Cc1ccc(C2(C)NC(=O)N(CCOc3ccccc3)C2=O)cc1 (stereo not given) | 3.16% (inactive)
N#CCc1c(C#N)c(N)nc(N2CCN(c3ccc(F)cc3)CC2)c1C#N | 4.37% (inactive)
COc1ccc2nc(NC(=O)CSC3=NCCS3)sc2c1 | -0.86% (inactive)
CCC(=O)N1CCc2cc(Br)cc(S(=O)(=O)NCc3ccco3)c21 | 0.76% (inactive)
COc1ccc(NC(=O)CN(C)CC(=O)Nc2ccccc2SC)cc1 | -3.18% (inactive)

SMILES | inhibition
Cc1[nH]nc2c1C1(C(=O)N(Cc3ccc(Cl)cc3)c3ccccc31)C(C#N)=C(N)O2 (stereo not given) | 10.5% (inactive)
CCC(C)(C)n1nnnc1C(c1ccc(OC)c(OC)c1)N1CCN(c2ccccc2)CC1 (stereo not given) | 2.72% (inactive)
CCOc1ccc(NC(=O)C2CCC(N3C(=O)C4CC=CCC4C3=O)CC2)cc1 (stereo not given) | 2.62% (inactive)
N/C(=N\S(=O)(=O)c1cccs1)c1ccccc1 | 13.7% (inactive)
c1ccc(-n2c(-c3ccncc3)nnc2N2CCOCC2)cc1 | 5.7% (inactive)
CCN(/N=C/c1ccc(Cl)cc1)c1cc(=O)n(C)c(=O)[nH]1 | 12.2% (inactive)
CCOc1cc(C(=O)NCCCn2ccnc2)cc(OCC)c1OCC | -4.2% (inactive)
Cc1cc(NC(=O)CSc2nnc3c4c(C)c(C)sc4ncn23)no1 | 14.7% (inactive)
Cc1ccc(C(C)n2cc(C(=O)NCCN3CCN(C)CC3)nn2)cc1 (stereo not given) | 22.4% (inactive)
CCCCCn1c(CN2CCN(Cc3ccccc3)CC2)nc2c1c(=O)n(C)c(=O)n2C | 2.55% (inactive)
COc1ccc(C(c2nnnn2Cc2ccccc2)N2CCN(c3nc4ccccc4s3)CC2)cc1 (stereo not given) | 2.21% (inactive)
COC(=O)c1c(-c2ccccc2)csc1NC(=O)c1ccco1 | 14.7% (inactive)
CCOC(=O)N1CCc2c(sc3c2c(=O)n(Cc2ccccc2)c(=O)n3Cc2cccc(C)c2)C1 | 5.64% (inactive)
CC(Sc1nnc(-c2cccs2)n1Cc1ccccc1)C(=O)NCc1ccc2c(c1)OCO2 (stereo not given) | 1.65% (inactive)
COc1cc(C(=O)OCCNC(=O)c2ccncc2)cc(OC)c1OC | 9.29% (inactive)
CN(Cc1ccccc1)C(=S)NC(=O)C1CCCCC1 | 8.28% (inactive)
COc1ccc2nc(SCc3nc(N)nc(Nc4ccccc4)n3)[nH]c2c1 | 6.2% (inactive)
CCc1cc(OCCOCCN(C)C)ccc1Cl | 8.67% (inactive)
O=C(O)C1CCCN1S(=O)(=O)c1ccc(Br)s1 (stereo not given) (tested in a mixture with another compound) | 6.99% (inactive)
O=C1C=C(c2ccccc2)C(O)(c2ccccc2)C1 (stereo not given) | -0.71% (inactive)
CCN1c2ccccc2-c2nc3ccccc3n2C1c1cccnc1 (stereo not given) | 1.05% (inactive)
COc1cc(S(=O)(=O)NC2CCCCC2C)ccc1Cl (stereo not given) | 9.69% (inactive)
C=CCN1C(c2cccc(C(F)(F)F)c2)=CS/C1=C(/C#N)c1nnc(N2CCOCC2)n1-c1ccccc1 | 31.5% (inactive)
CCOC(=O)C1CCCN(C(=O)COC(=O)c2cc(=O)c3ccccc3o2)C1 (stereo not given) | 3.09% (inactive)
c1ccc(-n2c(Sc3cnccn3)nnc2-c2cccs2)cc1 | 8.66% (inactive)

— PubChem BioAssay AID1288 (Columbia University Molecular Screening Center, 2008)
